Reference: patent publication US20060252710A1, “6-11 Bridged oxime erythromycin derivatives” (priority 2005, published 2006)
≈ marks a conversion by molar mass, not a printed value. Like-named read-outs stand apart in the source and are kept apart here.

Experiments:
Assay in all cases: MIC by micro-dilution method
Assay type in all cases: cell-based
S. pyogenes 2912 = settings: Streptococcus pyogenes
Protocol: (§1) Antibacterial activity studies may be carried out using suitable assays as are known in the art. Susceptibility tests can be used to quantitatively measure the in vitro activity of an antimicrobial agent against a given bacterial isolate. Compounds are tested for in vitro antibacterial activity by a micro-dilution method. Minimal Inhibitory Concentration (MIC) is determined in 96 well microtiter plates utilizing the appropriate Mueller Hinton Broth medium (CAMHB) for the observed bacterial isolates. Antimicrobial agents are serially diluted (2-fold) in DMSO to produce a concentration range from about 64 μg/ml to about 0.03 μg/ml. The diluted compounds (2 μl/well) are then transferred into sterile, uninoculated CAMHB (0.2 mL) by use of a 96 fixed tip-pipeting station. The inoculum for each bacterial strain is standardized to 5×10^5 CFU/mL by optical comparison to a 0.5 McFarland turbidity standard. The plates are inoculated with 10 μI/well of adjusted bacterial inoculum. The 96 well plates are covered and incubated at 35+/−2° C. for 24 hours in ambient air environment. Following incubation, plate wells are visually examined by Optical Density measurement for the presence of growth (turbidity). The lowest concentration of an antimicrobial agent at which no visible growth occurs is defined as the MIC.
(§2) All in vitro testing follows the guidelines described in the Approved Standards M7-A4 protocol, published by the National Committee for Clinical Laboratory Standards (NCCLS).
(§3) The values in the table are minimum inhibition concentration (MIC) and are expressed as ug/mL. Assays for MIC are described above.

S. pyogenes 1323 = settings: Streptococcus pyogenes
Protocol: as §1, §2, §3

S. aureus 33591 = settings: Staphylococcus aureus
Protocol: as §1, §2, §3

H. influenzae 33929 = settings: Haemophilus influenzae
Protocol: as §1, §2, §3

S. aureus 27660 = settings: Staphylococcus aureus
Protocol: as §1, §2, §3

S. pneumoniae 700906 = settings: Streptococcus pneumoniae
Protocol: as §1, §2, §3

S. pneumoniae 7701 = settings: Streptococcus pneumoniae
Protocol: as §1, §2, §3

S. aureus 29213 = settings: Staphylococcus aureus
Protocol: as §1, §2, §3

[1] = Table IV, species from U.S. Pat. No. 6,878,691 and US 2004/0053861, read-out: minimum inhibition concentration (MIC) S. pyogenes 2912
[2] = Table IV, species from U.S. Pat. No. 6,878,691 and US 2004/0053861, read-out: minimum inhibition concentration (MIC) S. pyogenes 1323
[3] = Table IV, species from U.S. Pat. No. 6,878,691 and US 2004/0053861, read-out: minimum inhibition concentration (MIC) S. aureus 33591
[4] = Table IV, species from U.S. Pat. No. 6,878,691 and US 2004/0053861, read-out: minimum inhibition concentration (MIC) H. influenzae 33929
[5] = Table IV, species from U.S. Pat. No. 6,878,691 and US 2004/0053861, read-out: minimum inhibition concentration (MIC) S. aureus 27660
[6] = Table IV, species from U.S. Pat. No. 6,878,691 and US 2004/0053861, read-out: minimum inhibition concentration (MIC) S. pneumoniae 700906
[7] = Table IV, species from U.S. Pat. No. 6,878,691 and US 2004/0053861, read-out: minimum inhibition concentration (MIC) S. pneumoniae 7701
[8] = Table IV, species from U.S. Pat. No. 6,878,691 and US 2004/0053861, read-out: minimum inhibition concentration (MIC) S. aureus 29213
[9] = Table V, compounds of this invention, read-out: minimum inhibition concentration S. pyogenes 2912
[10] = Table V, compounds of this invention, read-out: minimum inhibition concentration S. pyogenes 1323
[11] = Table V, compounds of this invention, read-out: minimum inhibition concentration S. aureus 33591
[12] = Table V, compounds of this invention, read-out: minimum inhibition concentration H. influenzae 33929
[13] = Table V, compounds of this invention, read-out: minimum inhibition concentration S. aureus 27660
[14] = Table V, compounds of this invention, read-out: minimum inhibition concentration S. pneumoniae 700906
[15] = Table V, compounds of this invention, read-out: minimum inhibition concentration S. pneumoniae 7701
[16] = Table V, compounds of this invention, read-out: minimum inhibition concentration S. aureus 29213

Compound | MIC (S. pyogenes 2912; [1]) [mg/L] | MIC (S. pyogenes 1323; [2]) [mg/L] | MIC (S. aureus 33591; [3]) [mg/L] | MIC (H. influenzae 33929; [4]) [mg/L] | MIC (S. aureus 27660; [5]) [mg/L] | MIC (S. pneumoniae 700906; [6]) [mg/L] | MIC (S. pneumoniae 7701; [7]) [mg/L] | MIC (S. aureus 29213; [8]) [mg/L] | MIC (S. pyogenes 2912; [9]) [mg/L] | MIC (S. pyogenes 1323; [10]) [mg/L] | MIC (S. aureus 33591; [11]) [mg/L] | MIC (H. influenzae 33929; [12]) [mg/L] | MIC (S. aureus 27660; [13]) [mg/L] | MIC (S. pneumoniae 700906; [14]) [mg/L] | MIC (S. pneumoniae 7701; [15]) [mg/L] | MIC (S. aureus 29213; [16]) [mg/L]
CC[C@H]1OC(=O)[C@H](C)[C@@H](OC(=O)Cc2cccnc2)[C@H](C)[C@@H](O[C@@H]2O[C@H](C)C[C@H](N(C)C)[C@H]2O)[C@@]2(C)C[C@@H](C)/C(=N\C(C)=O)[C@H](C)[C@@H](OC/C(=C\C=C\c3ccccc3)CO2)[C@]1(C)O [Compound A6] | 8 (≈ 8.99 µM) | 2 (≈ 2.25 µM) | 16 (≈ 18 µM) | > 64 | 1 (≈ 1.12 µM) | 8 (≈ 8.99 µM) | 1 (≈ 1.12 µM) | 1 (≈ 1.12 µM) | – | – | – | – | – | – | – | –
CC[C@H]1OC(=O)[C@H](C)C(=O)[C@H](C)[C@@H](O[C@@H]2O[C@H](C)C[C@H](N(C)C)[C@H]2O)[C@@]2(C)C[C@@H](C)C(=O)[C@H](C)[C@@H](OC/C(=N\OCc3ccc4nc(N)sc4c3)CO2)[C@]1(C)O [Compound B1] | – | – | – | – | – | – | – | – | 4 (≈ 4.97 µM) | 0.25 (≈ 0.311 µM) | > 64 | 2 (≈ 2.48 µM) | ≤ 0.06 | 1 (≈ 1.24 µM) | ≤ 0.06 | ≤ 0.06
CC[C@H]1OC(=O)[C@H](C)C(=O)[C@H](C)[C@@H](O[C@@H]2O[C@H](C)C[C@H](N(C)C)[C@H]2O)[C@@]2(C)C[C@@H](C)C(=O)[C@H](C)[C@@H](OC/C(=N\OCc3ccc4oc(N)nc4c3)CO2)[C@]1(C)O [Compound B3] | – | – | – | – | – | – | – | – | 4 (≈ 5.07 µM) | 0.5 (≈ 0.634 µM) | 32 (≈ 40.6 µM) | 2 (≈ 2.54 µM) | ≤ 0.06 | 0.25 (≈ 0.317 µM) | 0.125 (≈ 0.158 µM) | ≤ 0.06
CC[C@H]1OC(=O)[C@H](C)[C@@H](OC2C[C@@](C)(OC)[C@@H](OC(C)=O)[C@H](C)O2)[C@H](C)[C@@H](O[C@@H]2O[C@H](C)C[C@H](N(C)C)[C@H]2O)[C@@]2(C)C[C@@H](C)C(=O)[C@H](C)[C@@H](OCC(=Cc3cnc4ccccc4c3)CO2)[C@]1(C)O (stereo partly shown) [Compound A4] | 64 (≈ 67 µM) | 64 (≈ 67 µM) | – | > 64 | – | – | 8 (≈ 8.38 µM) | – | – | – | – | – | – | – | – | –
CC[C@H]1OC(=O)[C@H](C)[C@@H](O)[C@H](C)[C@@H](O[C@@H]2O[C@H](C)C[C@H](N(C)C)[C@H]2O)[C@@]2(C)C[C@@H](C)C(=N)[C@H](C)[C@@H](OC/C(=N\OCc3ccccc3)CO2)[C@]1(C)O [Compound A5] | > 64 | 64 (≈ 87.2 µM) | > 64 | > 64 | – | – | 2 (≈ 2.73 µM) | – | – | – | – | – | – | – | – | –
CC[C@H]1OC(=O)[C@H](C)C(=O)[C@H](C)[C@@H](O[C@@H]2O[C@H](C)C[C@H](N(C)C)[C@H]2O)[C@@]2(C)C[C@@H](C)/C(=N\C(C)=O)[C@H](C)[C@@H](OC/C(=N\OCc3nccc4ccccc34)CO2)[C@]1(C)O [Compound A1] | 8 (≈ 9.7 µM) | 0.5 (≈ 0.606 µM) | > 64 | 8 (≈ 9.7 µM) | 0.13 (≈ 0.158 µM) | 0.25 (≈ 0.303 µM) | 0.5 (≈ 0.606 µM) | 0.25 (≈ 0.303 µM) | – | – | – | – | – | – | – | –
CC[C@H]1OC(=O)[C@H](C)C(=O)[C@H](C)[C@@H](O[C@@H]2O[C@H](C)C[C@H](N(C)C)[C@H]2O)[C@@]2(C)C[C@@H](C)/C(=N\C(C)=O)[C@H](C)[C@@H](OC/C(=N\OCc3ccc4oc(N)nc4c3)CO2)[C@]1(C)O [Compound B4] | – | – | – | – | – | – | – | – | 1 (≈ 1.2 µM) | 0.5 (≈ 0.602 µM) | 32 (≈ 38.6 µM) | 4 (≈ 4.82 µM) | 0.125 (≈ 0.151 µM) | 0.125 (≈ 0.151 µM) | 0.125 (≈ 0.151 µM) | 0.125 (≈ 0.151 µM)
CC[C@H]1OC(=O)[C@@](C)(F)C(=O)[C@H](C)[C@@H](O[C@@H]2O[C@H](C)C[C@H](N(C)C)[C@H]2O)[C@@]2(C)C[C@@H](C)/C(=N\C(C)=O)[C@H](C)[C@@H](OC/C(=N\OCc3ccc4onc(N)c4c3)CO2)[C@]1(C)O [Compound B2] | – | – | – | – | – | – | – | – | 2 (≈ 2.36 µM) | 0.5 (≈ 0.59 µM) | > 64 | 2 (≈ 2.36 µM) | ≤ 0.06 | 0.5 (≈ 0.59 µM) | 0.125 (≈ 0.147 µM) | 0.125 (≈ 0.147 µM)
CC[C@H]1OC(=O)[C@H](C)C(=O)[C@H](C)[C@@H](O[C@@H]2O[C@H](C)C[C@H](N(C)C)[C@H]2O)[C@@]2(C)C[C@@H](C)/C(=N\C(C)=O)[C@H](C)[C@@H](OC/C(=N\OCc3cn4ccncc4n3)CO2)[C@]1(C)O [Compound A3] | 32 (≈ 39.3 µM) | 16 (≈ 19.6 µM) | > 64 | 8 (≈ 9.82 µM) | 0.25 (≈ 0.307 µM) | 0.13 (≈ 0.16 µM) | 2 (≈ 2.45 µM) | 0.25 (≈ 0.307 µM) | – | – | – | – | – | – | – | –
CC[C@H]1OC(=O)[C@H](C)C(=O)[C@H](C)[C@@H](O[C@@H]2O[C@H](C)C[C@H](N(C)C)[C@H]2O)[C@@]2(C)C[C@@H](C)/C(=N\C(C)=O)[C@H](C)[C@@H](OC/C(=N\OCc3ccc4nccnc4c3)CO2)[C@]1(C)O [Compound A2] | 16 (≈ 19.4 µM) | 1 (≈ 1.21 µM) | > 64 | 16 (≈ 19.4 µM) | 0.25 (≈ 0.303 µM) | 0.25 (≈ 0.303 µM) | 0.5 (≈ 0.605 µM) | 0.5 (≈ 0.605 µM) | – | – | – | – | – | – | – | –
